Activity calls are given as the source filed them. No rule for the calls is given here.

The series deals with rodent carcinogenicity bioassays, tumor incidence. Description: CCRIS carcinogenicity studies. From the text:
The CCRIS database contains chemical records with carcinogenicity, mutagenicity, tumor promotion, and tumor inhibition test results. It was developed by the National Cancer Institute (NCI). Data are derived from studies cited in primary journals, current awareness tools, NCI reports, and other sources. Test results have been reviewed by experts in carcinogenesis and mutagenesis.
CCRIS provides historical information from the years 1985 - 2011. It is no longer updated.
This is an archive assay for CCRIS carcinogenicity studies.

Turning to `CCCCOC(=O)c1ccccc1C(=O)OCc1ccccc1`, the carcinogen call runs as follows: (Species: MOUSE, Strain/Sex: B6C3F1/FEMALE, Route: ORAL, Dose: 0, 6000, 12000 PPM IN DIET FOR 103 WK (STUDY DURATION: 105-106 WK), Dose: 0, 6000, 12000 PPM IN DIET FOR 103 WK (STUDY DURATION: 105-106 WK)) “inactive; negative”; (Species: MOUSE, Strain/Sex: B6C3F1/MALE, Route: ORAL, Dose: 0, 6000, 12000 PPM IN DIET FOR 103 WK (STUDY DURATION: 104-106 WK), Dose: 0, 6000, 12000 PPM IN DIET FOR 103 WK (STUDY DURATION: 104-106 WK)) “inactive; negative”; (Species: RAT, Strain/Sex: F344/FEMALE, Route: ORAL, Dose: 0, 6000, 12000, 24000 PPM IN DIET FOR DURATION OF STUDY (STUDY DURATION: 104 WK), Dose: 0, 6000, 12000, 24000 PPM IN DIET FOR DURATION OF STUDY (STUDY DURATION: 104 WK), Tumor Site: Type of Lesion: PANCREAS: ACINAR CELL ADENOMA, URINARY BLADDER: TRANSITIONAL EPITHELIAL PAPILLOMA) “equivocal”; (Species: RAT, Strain/Sex: F344/FEMALE, Route: ORAL, Dose: 0, 24000 PPM IN DIET FOR 105 WK, CONTROL GROUP DIET RESTRICTED TO LIMIT WEIGHTS TO 85% OF AD LIBITUM-FED GROUP (STUDY DU) “inactive; negative”; (Species: RAT, Strain/Sex: F344/FEMALE, Route: ORAL, Dose: 0, 24000 PPM IN DIET FOR 106 WK, CONTROL AND DOSED GROUP FED AD LIBITUM (STUDY DURATION: 2 YR)) “inactive; negative”; (Species: RAT, Strain/Sex: F344/FEMALE, Route: ORAL, Dose: 0, 24000 PPM IN DIET FOR 106 WK, CONTROL GROUP WAS WEIGHT-MATCHED TO DOSED GROUP (STUDY DURATION: 2 YR)) “inactive; negative”. For the same compound, the carcinogen call was “active; positive” (Species: RAT, Strain/Sex: F344/MALE, Route: ORAL, Dose: 0, 3000, 6000, 12000 PPM IN DIET FOR DURATION OF STUDY (STUDY DURATION: 104 WK), Dose: 0, 3000, 6000, 12000 PPM IN DIET FOR DURATION OF STUDY (STUDY DURATION: 104 WK), Tumor Site: Type of Lesion: PANCREAS: ACINAR CELL ADENOMA, ACINAR CELL ADENOMA OR CARCINOMA); “active; positive” (Species: RAT, Strain/Sex: F344/MALE, Route: ORAL, Dose: 0, 12000 PPM IN DIET FOR 105 WK, CONTROL AND DOSED GROUPS FED AD LIBITUM (STUDY DURATION 2 YR), Tumor Site: Type of Lesion: PANCREAS(ACINUS): ADENOMA); “inactive; negative” (Species: RAT, Strain/Sex: F344/MALE, Route: ORAL, Dose: 0, 12000 PPM IN DIET FOR 105 WK, CONTROL GROUP DIET RESTRICTED TO LIMIT WEIGHTS TO 85% OF AD LIBITUM-FED GROUPS (STUDY D); “active; positive” (Species: RAT, Strain/Sex: F344/MALE, Route: ORAL, Dose: 0, 12000 PPM IN DIET FOR 105 WK, CONTROL GROUP WAS WEIGHT-MATCHED TO DOSED GROUP (STUDY DURATION: 2 YR), Tumor Site: Type of Lesion: PANCREAS(ACINUS): ADENOMA); “inactive; negative” (Species: RAT, Strain/Sex: F344/MALE, Route: ORAL, Dose: 0, 12000 PPM IN DIET FOR 128 WK, CONTROL GROUP DIET RESTRICTED TO LIMIT WEIGHTS TO 85% OF AD LIBITUM-FED GROUP (STUDY DU).
Regarding `C=CC(=O)OC(C)COCC(C)OCC(C)OC(=O)C=C` (configuration not stated), the carcinogen call (Species: MOUSE, Strain/Sex: TG.AC/FEMALE, Route: DERMAL, Dose: 0, 1, 5, 10 UMOL IN 200 µL ACETONE 3/WK FOR 20 WK (STUDY DURATION: 20 WK), Dose: 0, 1, 5, 10 UMOL IN 200 µL ACETONE 3/WK FOR 20 WK (STUDY DURATION: 20 WK), Tumor Site: Type of Lesion: SKIN: PAPILLOMA) was “active; positive”.
With `CC(CN1c2ccccc2Sc2ccccc21)N(C)C` (configuration not stated), the carcinogen call reads like this: (Species: MOUSE, Strain/Sex: B6C3F1/FEMALE, Route: GAVAGE, Dose: 0, 3.75, 7.5, 15 MG/KG IN WATER 1/D 5 D/WK FOR 103 WK (STUDY DURATION: 106 WK), Dose: 0, 3.75, 7.5, 15 MG/KG IN WATER 1/D 5 D/WK FOR 103 WK (STUDY DURATION: 106 WK)) “inactive; negative”; (Species: MOUSE, Strain/Sex: B6C3F1/MALE, Route: GAVAGE, Dose: 0, 11.25, 22.5, 45 MG/KG IN WATER 1/D 5 D/WK FOR 103 WK (STUDY DURATION: 106 WK), Dose: 0, 11.25, 22.5, 45 MG/KG IN WATER 1/D 5 D/WK FOR 103 WK (STUDY DURATION: 106 WK)) “inactive; negative”; (Species: RAT, Strain/Sex: F344/FEMALE, Route: GAVAGE, Dose: 0, 8.3, 16.6, 33.3 MG/KG IN WATER 1/D 5 D/WK FOR 103 WK (STUDY DURATION: 106 WK), Dose: 0, 8.3, 16.6, 33.3 MG/KG IN WATER 1/D 5 D/WK FOR 103 WK (STUDY DURATION: 106 WK)) “inactive; negative”; (Species: RAT, Strain/Sex: F344/MALE, Route: GAVAGE, Dose: 0, 8.3, 16.6, 33.3 MG/KG IN WATER 1/D 5 D/WK FOR 103 WK (STUDY DURATION: 106 WK), Dose: 0, 8.3, 16.6, 33.3 MG/KG IN WATER 1/D 5 D/WK FOR 103 WK (STUDY DURATION: 106 WK)) “inactive; negative”.
Consider `O=NN1CCCCC1`, for which the carcinogen call is, setting by setting: (Species: HAMSTER, Route: SUBCUTANEOUS, Tumor Site: Type of Lesion: TRACHEA, NASAL CAVITY, ESOPHAGUS, FORESTOMACH, LUNG, LIVER, Tumor Site: Type of Lesion: TRACHEA, NASAL CAVITY, ESOPHAGUS, FORESTOMACH, LUNG, LIVER) “active; positive”; (Species: HAMSTER, Strain/Sex: SYRIAN/MALE,FEMALE, Route: ORAL, Dose: 0.006, 0.025, 0.05% IN DRINKING WATER FOR LIFE, Dose: 0.006, 0.025, 0.05% IN DRINKING WATER FOR LIFE, Tumor Site: Type of Lesion: RESPIRATORY TRACT (LARYNX, PHARYNX, TRACHEA): PAPILLOMA, EPIDERMOID CARCINOMA, PAPILLARY POLYP, FORESTOMACH: PAPILLOMA) “active; positive”; (Species: MONKEY, Route: ORAL, Tumor Site: Type of Lesion: LIVER) “active; positive”; (Species: MOUSE, Route: INTRAPERITONEAL, Tumor Site: Type of Lesion: LUNG) “active; positive”; (Species: MOUSE, Route: ORAL, Tumor Site: Type of Lesion: FORESTOMACH, LIVER, LUNG, Tumor Site: Type of Lesion: FORESTOMACH, LIVER, LUNG) “active; positive”; (Species: RAT, Route: INTRAVENOUS, Tumor Site: Type of Lesion: ESOPHAGUS, PHARYNX) “active; positive”. In addition, the carcinogen call is “active; positive” (Species: RAT, Route: ORAL, Tumor Site: Type of Lesion: ESOPHAGUS, LIVER); “active; positive” (Species: RAT, Route: SUBCUTANEOUS, Tumor Site: Type of Lesion: ESOPHAGUS, NASAL CAVITY); “active; positive” (Species: RAT, Strain/Sex: F344/FEMALE, Route: ORAL, Dose: 0.9 MILLIMOLAR SOLUTION (100 MG/L) IN DRINKING WATER 5/WK FOR 28 WK, Tumor Site: Type of Lesion: ESOPHAGUS: PAPILLOMA, CARCINOMA).
For `C=CCOC(=O)CC(C)C`, the carcinogen call is, setting by setting: (Species: MOUSE, Strain/Sex: B6C3F1/FEMALE, Route: GAVAGE, Dose: 0, 31, 62 MG/KG IN CORN OIL FOR 103 WK, Dose: 0, 31, 62 MG/KG IN CORN OIL FOR 103 WK, Tumor Site: Type of Lesion: LYMPHATIC SYSTEM: MALIGNANT LYMPHOMA) “active; positive”; (Species: RAT, Strain/Sex: F344/MALE, Route: GAVAGE, Dose: 0, 31, 62 MG/KG IN CORN OIL FOR 103 WK, Dose: 0, 31, 62 MG/KG IN CORN OIL FOR 103 WK, Tumor Site: Type of Lesion: HEMATOPOIETIC SYSTEM (LEUKEMIA): MONONUCLEAR CELL LEUKEMIA) “active; positive”.

(Values after PubChem BioAssay AID1259411 (Chemical Carcinogenesis Research Information System (CCRIS), 2018).)
